From US11584763B2, “Chromenopyridine derivatives as phosphatidylinositol phosphate kinase inhibitors” (HIBERCELL, INC., priority 2017, dated 2023)

Assays:
Type in all cases: biochemical
[1] = target: T1, PIP4K2B (Homo sapiens, UniProt P78356); test: Trans-FI P kinase assay PIP4K2B (PIP4KtypeIIB inhibition assay); details: compounds listed under IC50 bin headings; 100 uM GTP; read-out: Trans-FI P kinase assays: PIP4K2B IC50
T1 construct: made in house; host or cells: E. coli
T1 sequence (P78356 1-416): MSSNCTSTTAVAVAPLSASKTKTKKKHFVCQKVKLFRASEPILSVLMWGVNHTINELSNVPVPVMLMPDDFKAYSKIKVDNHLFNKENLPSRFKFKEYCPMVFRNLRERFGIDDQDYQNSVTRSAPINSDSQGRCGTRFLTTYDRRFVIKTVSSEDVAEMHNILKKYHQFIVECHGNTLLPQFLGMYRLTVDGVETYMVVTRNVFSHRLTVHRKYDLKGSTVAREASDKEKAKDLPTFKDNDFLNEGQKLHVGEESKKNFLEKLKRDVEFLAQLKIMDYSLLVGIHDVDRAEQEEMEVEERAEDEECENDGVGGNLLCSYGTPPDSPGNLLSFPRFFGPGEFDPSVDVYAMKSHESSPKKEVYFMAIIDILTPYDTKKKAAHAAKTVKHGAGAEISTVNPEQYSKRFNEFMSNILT
Summary of the method: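 Transcreener FI fluorescence read-out of GDP formed by E. coli-expressed GST-PIP4K2B (5 nM) using 100 uM GTP and 80 uM PI5P with DOPE carrier lipid, pH 7.3, 2 h reaction. Compounds (up to 4.8 uM) were preincubated with enzyme 1 h at 27 C; IC50 fitted from residual activity relative to no-inhibitor control.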

[2] = target: T2, PIP4K 2A (Homo sapiens, UniProt P48426); test: Kinase Assay PIP4K2 A (PIP4KtypeIIA inhibition assay); parameters: made in house; host or cells: E. coli; details: compounds listed under IC50 bin headings
T2 sequence (P48426 1-406): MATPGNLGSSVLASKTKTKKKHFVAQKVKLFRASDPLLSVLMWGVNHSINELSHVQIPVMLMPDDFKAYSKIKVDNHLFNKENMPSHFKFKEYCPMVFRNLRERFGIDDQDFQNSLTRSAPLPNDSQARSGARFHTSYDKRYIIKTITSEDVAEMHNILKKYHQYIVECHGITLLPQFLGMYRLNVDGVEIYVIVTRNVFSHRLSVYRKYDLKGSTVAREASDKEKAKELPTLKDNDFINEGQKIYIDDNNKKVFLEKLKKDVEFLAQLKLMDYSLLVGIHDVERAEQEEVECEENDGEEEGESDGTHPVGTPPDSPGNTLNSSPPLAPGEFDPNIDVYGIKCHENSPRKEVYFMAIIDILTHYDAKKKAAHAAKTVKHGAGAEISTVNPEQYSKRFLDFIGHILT
Summary of the method: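 GST-tagged enzyme from E. coli at 0.5 nM final was preincubated with compound for 1 h at 27 C, then reacted with 10 uM ATP, 80 uM PI5P and DOPE carrier in 50 mM HEPES pH 7.3, 5% DMSO. After 1 h, ADP was measured by ADP-Glo luminescence against a calibration curve. IC50 was fitted from % residual activity.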

[3] = target: T2, PIP4K 2A; test: ADP-glo kinase assay PIP4K 2A; parameters: 4 nM PIP4K2A (full length protein, SignalChem); purchased SignalChem; details: compounds listed under IC50 bin headings
Summary of the method: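 Inhibition was calculated versus DMSO controls from ADP-Glo luminescence and fitted to IC50 over a 10-point, threefold series. Compound was first pre-incubated 15 min at room temperature with PIP4K2A (full-length; 4 nM in the enzyme/substrate mix) and PI(5)P diC8 (100 μM in that mix). The reaction then ran for 1 h after adding 60 μM ATP solution, in MOPS pH 7.2/MgCl2/Tween buffer.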

Structure (SMILES)	IC50 [1] [nM]	IC50 [2] [nM]	IC50 [3] [nM]
CC(C)S(=O)(=O)N1CCOc2ncc(Nc3cc4c(cn3)-c3ccc(N5CCCC5=O)cc3OC4)cc21 [Example 79, 1-(3-((1-(isopropylsulfonyl)-2,3-dihydro-1H-pyrido[2,3-b][1,4]oxazin-7-yl)amino)-5H-chromeno[4,3-c]pyridin-8-yl)pyrrolidin-2-one]	10 to 100	≤ 1	1 to 10
CC1Oc2cc(N3CCCC3=O)ccc2-c2cnc(Nc3cncnc3)cc21 (stereo not drawn) [Example 80, 1-(5-methyl-3-(pyrimidin-5-ylamino)-5H-chromeno[4,3-c]pyridin-8-yl)pyrrolidin-2-one]	100 to 1000	10 to 100	10 to 100
CC1Oc2cc(N3CCCC3=O)ccc2-c2cnc(Nc3cncc(C(F)(F)F)c3)cc21 (stereo not drawn) [Example 81, 1-(5-methyl-3-((5-(trifluoromethyl)pyridin-3-yl)amino)-5H-chromeno[4,3-c]pyridin-8-yl)pyrrolidin-2-one]	> 1000	10 to 100	100 to 1000
COC(=O)N1CCOc2ncc(Nc3cc4c(cn3)-c3ccc(N5CCCC5=O)cc3OC4C)cc21 (stereo not drawn) [Example 83, methyl 7-((5-methyl-8-(2-oxopyrrolidin-1-yl)-5H-chromeno[4,3-c]pyridin-3-yl)amino)-2,3-dihydro-1H-pyrido[2,3-b][1,4]oxazine-1-carboxylate]	1 to 10	≤ 1	≤ 1
CC(C)C(=O)N1CCOc2ncc(Nc3cc4c(cn3)-c3ccc(N5CCCC5=O)cc3OC4C)cc21 (stereo not drawn) [Example 84, 1-(3-((1-isobutyryl-2,3-dihydro-1H-pyrido[2,3-b][1,4]oxazin-7-yl)amino)-5-methyl-5H-chromeno[4,3-c]pyridin-8-yl)pyrrolidin-2-one]	1 to 10	≤ 1	≤ 1
CC1Oc2cc(N3CCCC3=O)ccc2-c2cnc(Nc3cnc4c(c3)N(S(=O)(=O)C(C)C)CCO4)cc21 (stereo not drawn) [Example 85, 1-(3-((1-(isopropylsulfonyl)-2,3-dihydro-1H-pyrido[2,3-b][1,4]oxazin-7-yl)amino)-5-methyl-5H-chromeno[4,3-c]pyridin-8-yl)pyrrolidin-2-one]	10 to 100	≤ 1	1 to 10

The next lines start with the values.

IC50 [1] [nM]	IC50 [2] [nM]	IC50 [3] [nM]	Structure (SMILES)
1 to 10	≤ 1	≤ 1	O=C1CCCN1c1ccc2c(c1)OCc1cc(Nc3cnc4c(c3)N3C(=O)CC[C@H]3CO4)ncc1-2 [Example 75, (S)-2-((8-(2-oxopyrrolidin-1-yl)-5H-chromeno[4,3-c]pyridin-3-yl)amino)-6,6a,7,8-tetrahydro-9H-pyrido[2,3-b]pyrrolo[1,2-d][1,4]oxazin-9-one]
1 to 10	≤ 1	≤ 1	O=C1CCCN1c1ccc2c(c1)OCc1cc(Nc3cnc4c(c3)N(C(=O)C3CC3)CCO4)ncc1-2 [Example 76, 1-(3-((1-(cyclopropanecarbonyl)-2,3-dihydro-1H-pyrido[2,3-b][1,4]oxazin-7-yl)amino)-5H-chromeno[4,3-c]pyridin-8-yl)pyrrolidin-2-one]
1 to 10	≤ 1	≤ 1	COC(=O)N1CCOc2ncc(Nc3cc4c(cn3)-c3ccc(N5CCCC5=O)cc3OC4)cc21 [Example 77, methyl 7-((8-(2-oxopyrrolidin-1-yl)-5H-chromeno[4,3-c]pyridin-3-yl)amino)-2,3-dihydro-1H-pyrido[2,3-b][1,4]oxazine-1-carboxylate]
1 to 10	≤ 1	≤ 1	CS(=O)(=O)N1CCOc2ncc(Nc3cc4c(cn3)-c3ccc(N5CCCC5=O)cc3OC4)cc21 [Example 78, 1-(3-((1-(methylsulfonyl)-2,3-dihydro-1H-pyrido[2,3-b][1,4]oxazin-7-yl)amino)-5H-chromeno[4,3-c]pyridin-8-yl)pyrrolidin-2-one]
1 to 10	≤ 1	≤ 1	CC1Oc2cc(N3CCCC3=O)ccc2-c2cnc(Nc3cnc4c(c3)N(C(=O)C3CC3)CCO4)cc21 (stereo not drawn) [Example 82, 1-(3-((1-(cyclopropanecarbonyl)-2,3-dihydro-1H-pyrido[2,3-b][1,4]oxazin-7-yl)amino)-5-methyl-5H-chromeno[4,3-c]pyridin-8-yl)pyrrolidin-2-one]
